# Measured values as given in PMC6751662, “Pharmacological and functional similarities of the human neuropeptide Y system in C. elegans challenges phylogenetic views on the FLP/NPR system” (Cell Communication and Signaling : CCS, 2019).
# Where two headings read alike, the source gives them in different places. Ends that are not written are not given here.
# What was measured:
# NPR-11 [1] = target: T1, NPR-11 (Caenorhabditis elegans, UniProt Q18179); assay: cAMP reporter gene assay, Gi/o (inhibition of forskolin-induced cAMP), NPR-11; type: cell-based, C. elegans; conditions: for Emax: HEK293, read-out: Emax ± SEM [%]
# T1 construct: expressed in transfected cells; host or cells: HEK293, transient
# T1 sequence (Q18179 1-402): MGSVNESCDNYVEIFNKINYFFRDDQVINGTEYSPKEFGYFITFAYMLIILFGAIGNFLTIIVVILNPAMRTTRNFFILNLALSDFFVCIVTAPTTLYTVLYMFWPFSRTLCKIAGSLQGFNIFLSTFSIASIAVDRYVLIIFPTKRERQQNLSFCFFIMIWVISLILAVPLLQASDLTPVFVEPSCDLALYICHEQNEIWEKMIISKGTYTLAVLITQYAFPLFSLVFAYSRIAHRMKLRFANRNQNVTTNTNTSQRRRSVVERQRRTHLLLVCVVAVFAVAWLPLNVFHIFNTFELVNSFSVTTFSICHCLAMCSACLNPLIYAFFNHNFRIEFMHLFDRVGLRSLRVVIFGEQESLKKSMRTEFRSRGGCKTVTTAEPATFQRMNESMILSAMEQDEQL
# Protocol: (§1) Activation of Gs and Gi/o was assessed with a cAMP reporter gene assay. HEK293 cells grown to 70–80% confluency in 6-well plates were transiently co-transfected with vectors encoding the receptor and the cAMP reporter gene plasmid pGL4.29 [luc2P/CRE/Hygro] (Promega; 4 μg total, 1:1 ratio) using Metafectene Pro (3 μl/μg DNA; Biontex) following the manufacturer’s instructions. 16 h post transfection, the cells were seeded into white 384-well plates at a density of 20,000 cells/well. On the next day, the medium was removed and the cells were stimulated with 20 μl of peptide solution (or forskolin as positive control) in serum-free DMEM for 4 h. For measuring Gi/o activity, the peptide solutions additionally contained 1 μM forskolin to elevate cellular cAMP levels. After incubation, the luciferase substrate OneGlo in lysis buffer (Promega) was added and the luminescence was measured in a microplate reader Tecan Spark (Tecan). Data were analyzed with GraphPad Prism 5.03 and are shown as fold of basal or fold of forskolin in case of Gαi/o activity.
# (§2) For in vitro activation, data is presented as mean ± SEM of at least three independent experiments conducted in technical triplicate. […] For the C. elegans NPRs, we considered the strongest response elicited by any of the peptides downstream of a particular receptor as the receptor’s maximal signal. This may or may not be the biological maximum that can be reached by the ‘true’ endogenous agonist. For the human receptors, the response to the established endogenous agonist reflected the maximal signal.
# [2] = Solubility of crude peptides in RP-HPLC purification solvents; type: physicochemical; conditions: H2O + 0.1% TFA / acetonitrile + 0.08% TFA (RP-HPLC purification conditions)
# Protocol: C-terminally amidated peptides were synthesized in 15 μmol scale by solid-phase peptide synthesis following the Fmoc/tert-butyl strategy (reviewed in [18]) on Rink amide resin using an automated Syro II peptide synthesizer (MultiSynTech). Automated coupling reactions were performed as double couplings using 8 eq Nα-protected amino acid, activated in situ with equimolar amounts of Oxyma and […] in dimethylformamide (DMF) for 30 min. Automated Fmoc deprotection was carried out with 40% (v/v) piperidine in DMF for 3 min and 20% (v/v) piperidine in DMF for 10 min. Reactive side chains of amino acids were protected by tert-butyl (tBu for Tyr, Ser, Asp, Glu, Thr), trityl (Trt for Asn, Gln, His), 2,2,4,6,7-pentamethyldihydrobenzofuran-5-sulfonyl (Pbf for Arg) and tert-butyloxycarbonyl (Boc for Lys). Peptides were cleaved off the resin using trifluoroacetic acid (TFA)/H2O/triisopropylsilane (90/5/5, v/v/v) for 2.5 h at room temperature and precipitated in ice cold diethyl ether. All peptides were purified to > 95% purity by RP-HPLC (Shimadzu) using a Phenomenex Jupiter 10 μm Proteo 90 Å (C12) column. For most peptides, linear gradients of H2O + 0.1% trifluoroacetic acid (TFA) (eluent A) and acetonitrile (ACN) + 0.08% TFA (eluent B) were applied at a flow rate of 10 ml/minute. […] FLP-27, FLP-33, and FLP-34 were solubilized by ultrasonication at 50 °C for 10 min and subsequently purified under standard solvent conditions used pre-heated HPLC systems. […] Peptide identity was verified by matrix-assisted laser desorption/time of flight (MALDI-ToF; Ultraflex III MALDI-ToF/ToF, Bruker Daltonics) mass spectrometry, and peptide purity was evaluated with analytical RP-HPLC.
# NPR-4b [3] = target: T2, NPR-4b (Caenorhabditis elegans, UniProt A0A078BTK0); assay: cAMP reporter gene assay, Gi/o (inhibition of forskolin-induced cAMP), NPR-4b; type: cell-based, C. elegans
# T2 sequence (A0A078BTK0 1-376): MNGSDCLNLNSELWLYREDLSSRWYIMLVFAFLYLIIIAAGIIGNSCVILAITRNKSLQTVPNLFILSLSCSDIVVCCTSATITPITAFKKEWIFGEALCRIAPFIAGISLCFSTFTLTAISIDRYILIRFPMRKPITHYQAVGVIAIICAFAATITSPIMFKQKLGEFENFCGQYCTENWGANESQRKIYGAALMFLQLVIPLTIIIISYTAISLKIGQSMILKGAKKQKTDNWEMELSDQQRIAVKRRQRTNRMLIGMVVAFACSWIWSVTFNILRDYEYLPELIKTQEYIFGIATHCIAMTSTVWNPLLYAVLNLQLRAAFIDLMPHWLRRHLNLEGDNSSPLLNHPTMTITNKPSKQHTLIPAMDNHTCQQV
# Protocol: as §1, with “(Tecan).” for “(Tecan). Data were analyzed with GraphPad Prism 5.03 and are shown as fold of basal or fold of forskolin in case of Gαi/o activity.”
# as §2
# NPR-1 [4] = target: T3, NPR-1 (Caenorhabditis elegans, UniProt Q18534); assay: cAMP reporter gene assay, Gi/o (inhibition of forskolin-induced cAMP), NPR-1; type: cell-based, C. elegans; set-up: host or cells: HEK293; conditions: for Emax: HEK293, read-out: Emax ± SEM [%]
# T3 sequence (Q18534 1-457): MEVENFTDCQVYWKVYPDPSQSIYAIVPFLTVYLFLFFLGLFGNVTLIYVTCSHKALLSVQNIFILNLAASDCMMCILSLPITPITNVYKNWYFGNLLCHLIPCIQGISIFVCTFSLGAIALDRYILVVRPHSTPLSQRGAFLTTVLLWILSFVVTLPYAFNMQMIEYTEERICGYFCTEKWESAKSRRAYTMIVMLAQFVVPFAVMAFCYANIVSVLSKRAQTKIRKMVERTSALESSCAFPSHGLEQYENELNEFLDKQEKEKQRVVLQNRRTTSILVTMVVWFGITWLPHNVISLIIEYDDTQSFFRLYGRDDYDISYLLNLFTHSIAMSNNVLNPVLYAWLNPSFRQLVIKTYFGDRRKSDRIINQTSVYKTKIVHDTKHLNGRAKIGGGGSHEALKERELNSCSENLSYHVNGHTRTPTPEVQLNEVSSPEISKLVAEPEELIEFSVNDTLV
# Protocol: as §1, §2
# NPR-6 = assay: cAMP reporter gene assay, Gs (no forskolin), NPR-6; type: cell-based, C. elegans; conditions: 4 h, NPR-6-transfected HEK293, CRE-luciferase reporter, mean of >=3 independent experiments
# Protocol: as §1, §2
# NPR-1 [5] = target: T3, NPR-1; assay: cAMP reporter gene assay, Gs (no forskolin), NPR-1; type: cell-based, C. elegans; set-up: host or cells: HEK293; conditions: 4 h, NPR-1-transfected HEK293, CRE-luciferase reporter, mean of >=3 independent experiments
# Protocol: as §1, §2
# NPR-5b [6] = target: T4, NPR-5b (Caenorhabditis elegans, UniProt Q6F3C9); assay: cAMP reporter gene assay, Gs (no forskolin), NPR-5b; type: cell-based, C. elegans; conditions: 4 h, NPR-5b-transfected HEK293, CRE-luciferase reporter, mean of >=3 independent experiments
# T4 sequence (Q6F3C9 1-433): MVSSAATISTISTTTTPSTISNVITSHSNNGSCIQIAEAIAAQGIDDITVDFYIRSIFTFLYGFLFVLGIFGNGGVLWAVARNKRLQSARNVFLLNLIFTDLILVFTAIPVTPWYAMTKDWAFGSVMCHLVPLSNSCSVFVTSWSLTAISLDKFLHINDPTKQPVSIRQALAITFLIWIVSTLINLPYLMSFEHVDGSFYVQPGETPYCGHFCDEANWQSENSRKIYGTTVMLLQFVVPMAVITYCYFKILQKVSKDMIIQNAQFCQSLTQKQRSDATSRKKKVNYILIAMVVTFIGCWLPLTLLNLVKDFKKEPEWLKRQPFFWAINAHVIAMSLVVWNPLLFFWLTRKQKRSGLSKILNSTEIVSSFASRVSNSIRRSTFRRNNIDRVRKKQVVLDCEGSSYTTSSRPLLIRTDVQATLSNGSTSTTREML
# Protocol: as §1, §2
# NPR-11 [7] = target: T1, NPR-11; assay: cAMP reporter gene assay, Gs (no forskolin), NPR-11; type: cell-based, C. elegans; conditions: 4 h, NPR-11-transfected HEK293, CRE-luciferase reporter, mean of >=3 independent experiments
# Protocol: as §1, §2
# NPR-4b [8] = target: T2, NPR-4b; assay: cAMP reporter gene assay, Gs (no forskolin), NPR-4b; type: cell-based, C. elegans; conditions: 4 h, NPR-4b-transfected HEK293, CRE-luciferase reporter, mean of >=3 independent experiments
# Protocol: as §1, §2
# NPR-3 = assay: cAMP reporter gene assay, Gs (no forskolin), NPR-3; type: cell-based, C. elegans; conditions: 4 h, NPR-3-transfected HEK293, CRE-luciferase reporter, mean of >=3 independent experiments
# Protocol: as §1, §2
# NPR-5b [9] = target: T4, NPR-5b; assay: cAMP reporter gene assay, Gi/o (with forskolin), NPR-5b; type: cell-based, C. elegans; set-up: Emax: unit not given here; conditions: NPR-5b, transiently transfected HEK293 cells
# Protocol: as §1, with “(Tecan).” for “(Tecan). Data were analyzed with GraphPad Prism 5.03 and are shown as fold of basal or fold of forskolin in case of Gαi/o activity.”
# as §2
# [10] = 1 µM forskolin (positive control)
# [11] = 100 µM forskolin (positive control)
compound,measurement,setting,value
ALNRDSLVASLNNAERLRF-NH2 [FLP-34-2],EC50,"NPR-11 [1]; EC50 at NPR-11, full concentration-response curve, inhibition of 1 µM forskolin-induced cAMP, transfected HEK293 (Figure S1, Table S11)",0.7 nM
same,Emax,NPR-11 [1]; SEM,-0.65 ± 0.14%
same,EC50,NPR-11 [1]; SEM,0.631 nM
same,solubility of crude peptide,[2],partly insoluble
KHEYLRF-NH2 [FLP-14],EC50,NPR-4b [3],2430 nM
same,Emax,"NPR-4b [3]; NPR-4b, forskolin (1 µM) set to 1.00, lower values correspond to high Gi/o activity, transiently transfected HEK293 cells, mean ± SEM of at least three independent experiments, SEM",-0.77 ± 0.2%
same,EC50,NPR-11 [1],1890 nM
same,Emax,NPR-11 [1]; SEM,-0.86 ± 0.19%
same,Emax,NPR-1 [4]; SEM,-0.51 ± 0.13%
same,EC50,NPR-1 [4]; SEM,25.1 nM
same,Emax at NPR-1,"NPR-1 [4]; full concentration-response curve, inhibition of 1 µM forskolin-induced cAMP, transfected HEK293 (Figure S1)",53 % of FLP-21 induced response
"C=C[C@@]1(C)CC(=O)[C@]2(O)[C@@]3(C)[C@@H](O)CCC(C)(C)[C@@H]3[C@H](O)[C@H](OC(C)=O)[C@@]2(C)O1 [forskolin, reference compound]","cAMP assay Gs, NPR-6",NPR-6; [10],12.19 x-fold of basal
same,"cAMP assay Gs, NPR-6",NPR-6; [11],46.24 x-fold of basal
same,"cAMP assay Gs, NPR-1",NPR-1 [5]; [10],15.39 x-fold of basal
same,"cAMP assay Gs, NPR-1",NPR-1 [5]; [11],76.79 x-fold of basal
same,"cAMP assay Gs, NPR-5b",NPR-5b [6]; [10],23.17 x-fold of basal
same,"cAMP assay Gs, NPR-5b",NPR-5b [6]; [11],67.99 x-fold of basal
same,"cAMP assay Gs, NPR-11",NPR-11 [7]; [10],16.67 x-fold of basal
same,"cAMP assay Gs, NPR-11",NPR-11 [7]; [11],60.68 x-fold of basal
same,"cAMP assay Gs, NPR-4b",NPR-4b [8]; [10],16.52 x-fold of basal
same,"cAMP assay Gs, NPR-4b",NPR-4b [8]; [11],44.21 x-fold of basal
same,"cAMP assay Gs, NPR-3",NPR-3; [10],20.07 x-fold of basal
same,"cAMP assay Gs, NPR-3",NPR-3; [11],51.90 x-fold of basal
ADISTFASAINNAGRLRY-NH2 [FLP-34-1],Emax,"NPR-5b [9]; forskolin (1 µM) set to 1.00, increase of cAMP, mean ± SEM of at least three independent experiments, SEM",6.7 ± 8.21
same,EC50,"NPR-5b [9]; full concentration-response curve, with 1 µM forskolin, increase of cAMP, at least three independent experiments",20100 nM
same,Emax,NPR-11 [1]; SEM,-0.62 ± 0.1%
same,EC50,NPR-11 [1]; SEM,20 nM
same,EC50,NPR-1 [4],578 nM
same,Emax,NPR-1 [4]; SEM,-0.65 ± 0.14%
same,solubility of crude peptide,[2],partly insoluble
